The numbers were not newly measured in US20100022769A1, “NOVEL POLYNITROGENATED SYSTEMS AS ANTI-HIV AGENTS” (priority 2006, published 2010), which cites them from elsewhere.

One series deals with X4 strain of HIV. To be noted: subject infected with a X4 strain of HIV.
Series [1] concerns CCR5-dependent replication of HIV. The following applies: virus recovered from patients who received AMD3100.
The conditions of series [2]: development abandoned in 2001.
For series [3] the following is noted: related to its high positive charge in physiological medium.
The target of another series is CXCR4 (Homo sapiens, UniProt P61073). The following applies: times more active than AMD3100.
Chain of CXCR4 (P61073 whole entry): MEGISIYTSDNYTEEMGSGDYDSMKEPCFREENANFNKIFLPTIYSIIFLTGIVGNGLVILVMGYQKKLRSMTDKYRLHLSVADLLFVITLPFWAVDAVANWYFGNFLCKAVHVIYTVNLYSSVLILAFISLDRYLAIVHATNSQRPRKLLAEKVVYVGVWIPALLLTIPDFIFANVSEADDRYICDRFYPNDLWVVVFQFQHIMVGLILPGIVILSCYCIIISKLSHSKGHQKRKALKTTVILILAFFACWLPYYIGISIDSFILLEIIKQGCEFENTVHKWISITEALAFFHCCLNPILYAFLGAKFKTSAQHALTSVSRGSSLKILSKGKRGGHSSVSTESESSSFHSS

With `c1cc(CN2CCCNCCNCCCNCC2)ccc1CN1CCCNCCNCCCNCC1` [AMD3100], in the series on X4 strain of HIV, the “reduction of the viral load” value is on record as 0.8-0.9 log 10. In addition, the “inhibiting the in vivo CCR5-dependent replication of HIV” value in series [1] is listed as “not effective”. Moreover, in series [2], the cardiac toxicity result is given as “possible cardiac toxicity”. Also, the oral bioavailability entry in series [3] is “lack of oral bioavailability”.

`c1ccc(CNCc2ccc(CN3CCCNCCNCCCNCC3)cc2)nc1` [AMD3465]: the “activity relative to AMD3100” value at CXCR4 is recorded as “up to 10 times”.
